Our source for the IC50 values is patent US9796719B2, “Compounds and pharmaceutical compositions thereof for the treatment of inflammatory disorders” (GALAPAGOS NV, priority 2013, dated 2017).

By IC50 is commonly meant the point on the concentration scale where inhibition reaches its midpoint.

Experiment [1] addresses T1, hENPP2 (UniProtKB/SwissProt Sequence ref Q13822) (Homo sapiens (Human), UniProt Q13822). Put plainly: LPC hENPP2 assay (choline release, LPC as substrate). It counts as biochemical. The essentials:
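Choline released from LPC by ENPP2 is quantified after stopping with stop-developer containing 0.6 U/mL choline oxidase, 0.6 U/mL peroxidase, 1.8 mM TOOS, 1.2 mM amino-antipyrine and 20 mM EGTA. Quinoneimine dye read at 555 nm after 30 min at room temperature.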

The target of experiment [2] is T1, hENPP2. Put plainly: FS3 hENPP2 assay (fluorogenic substrate FS-3). As to conditions: hENPP2, FS-3 as substrate. The experiment is classed as biochemical. As to the method: Compound IC50 values are determined in a fluorescent hENPP2 (UniProtKB/SwissProt Sequence ref Q13822) biochemical assay using the fluorogenic autotaxin substrate FS-3 as substrate. FS-3 is a doubly labeled analog of LPC wherein the fluorophore is quenched through intramolecular energy transfer. Without hENPP2, the emission of the probe is quenched. If the substrate is hydrolyzed by hENPP2, the emission of the probe is not quenched anymore resulting in a fluorescence increase. Inhibition of hENPP2 by compounds will result in a decrease of the signal.
10 μL of a dilution series of compound, starting from 20 μM highest concentration, ⅕ dilution, is added to the wells. hENPP2 is used at a final concentration of 0.4 μg/mL or 0.64 μg/mL (it will be appreciated by the skilled person that the potency read out is independent of the enzyme concentration). The enzyme is diluted in 50 mM Tris-HCl pH 8.0, 250 mM NaCl, 5 mM KCl, 1 mM MgCl2, 1 mM CaCl2, 0.1% fatty acid free BSA in a total volume of 20 μL. Enzyme mixture is added to compounds and the resulting mixture is incubated for 30 min at room temperature under shaking. The reaction is started by the addition of 20 μL of 0.75 μM FS-3 diluted in the same buffer as described above and the mixture is incubated at 30° C. for 30 min. Fluorescence is read on the Envision (Excitation 485 nm, emission 520 nm).

`CCc1nc2ccc(N3CCC(CO)C3)nn2c1N(C)c1nc(-c2ccc(F)cc2)cs1` (stereo not shown) [Cpd 143, (1-(2-ethyl-3-((4-(4-fluorophenyl)thiazol-2-yl)(methyl)amino)imidazo[1,2-b]pyridazin-6-yl)pyrrolidin-3-yl)methanol]: the IC50 on hENPP2 [1] is greater than 1000 nM; against hENPP2 [2], 0.01 to 25 nM.

With `CCc1nc2ccc(N3CC4CN(S(=O)(=O)CCCN5CCOCC5)CC4C3)nn2c1N(C)c1nc(-c2ccc(F)cc2)cs1` (stereo not shown) [Compound 127, N-(2-ethyl-6-(5-(3-morpholinopropylsulfonyl)hexahydropyrrolo[3,4-c]pyrrol-2(1H)-yl)imidazo[1,2-b]pyridazin-3-yl)-4-(4-fluorophenyl)-N-methylthiazol-2-amine], the IC50 against hENPP2 [1] was greater than 1000 nM; on hENPP2 [2], 0.01 to 25 nM.

As to `CCc1nc2ccc(N3CCCC3CO)nn2c1N(C)c1nc(-c2ccc(F)cc2)cs1` (stereo not shown) [Cpd 142, (1-(2-ethyl-3-((4-(4-fluorophenyl)thiazol-2-yl)(methyl)amino)imidazo[1,2-b]pyridazin-6-yl)pyrrolidin-2-yl)methanol], the IC50 against hENPP2 [1] was greater than 1000 nM; at hENPP2 [2], 0.01 to 25 nM.

As to `CCc1nc2ccc(N3CCCC(CO)C3)nn2c1N(C)c1nc(-c2ccc(F)cc2)cs1` (stereo not shown) [Cpd 94, (1-(2-ethyl-3-((4-(4-fluorophenyl)thiazol-2-yl)(methyl)amino)imidazo[1,2-b]pyridazin-6-yl)piperidin-3-yl)methanol], the IC50 against hENPP2 [1] is greater than 1000 nM; on hENPP2 [2], 0.01 to 25 nM.

For `CCc1nc2ccc(N3CC4CN(C(C)=O)CC4C3)nn2c1N(C)c1nc(-c2ccc(F)cc2)cs1` (stereo not shown) [Compound 124, 1-(5-(2-ethyl-3-((4-(4-fluorophenyl)thiazol-2-yl)(methyl)amino)imidazo[1,2-b]pyridazin-6-yl)hexahydropyrrolo[3,4-c]pyrrol-2(1H)-yl)ethanone], the IC50 is greater than 1000 nM on hENPP2 [1] and 0.01 to 25 nM on hENPP2 [2].

For the molecule `CCc1nc2ccc(N3CC4CN(S(=O)(=O)CCCCl)CC4C3)nn2c1N(C)c1nc(-c2ccc(F)cc2)cs1` (stereo not shown) [Cpd 125, N-(6-(5-(3-chloropropyl-sulfonyl)-hexahydropyrrolo [3,4-c]pyrrol-2(1H)-yl)-2-ethylimidazo[1,2-b]pyridazin-3-yl)-4-(4-fluorophenyl)-N-methylthiazol-2-amine], the IC50 against hENPP2 [1] is greater than 1000 nM; on hENPP2 [2], 0.01 to 25 nM.

Turning to `CCc1nc2ccc(N3CCC(C(=O)O)CC3)nn2c1N(C)c1nc(-c2ccc(F)cc2)cs1` [Compound 96, 1-(2-ethyl-3-((4-(4-fluorophenyl)thiazol-2-yl)(methyl)amino)imidazo[1,2-b]pyridazin-6-yl)piperidine-4-carboxylic acid], the IC50 is greater than 1000 nM on hENPP2 [1] and 0.01 to 25 nM at hENPP2 [2].

In the case of `CCc1nc2ccc(C3CCN(CC(=O)N4CC(O)C4)CC3)nn2c1N(C)c1cccc(-c2ccc(F)cc2)n1` [Cpd 214, 2-(4-(2-ethyl-3-((6-(4-fluorophenyl)pyridin-2-yl)(methyl)amino)imidazo[1,2-b]pyridazin-6-yl)piperidin-1-yl)-1-(3-hydroxyazetidin-1-yl)ethanone], the IC50 at hENPP2 [1] lay within 500 to 1000 nM; on hENPP2 [2] it was 0.01 to 25 nM.

In the case of `CN(c1nc(-c2ccc(F)cc2)c(C(=O)C(F)(F)F)s1)c1c(CCC#N)nc2ccc(C3CCN(S(C)(=O)=O)CC3)nn12` [Compound 199, 3-(3-((4-(4-fluorophenyl)-5-(2,2,2-trifluoroacetoyl)thiazol-2-yl)(methyl)amino)-6-(1-(methylsulfonyl)piperidin-4-yl)imidazo[1,2-b]pyridazin-2-yl)propanenitrile], the figures for the IC50 against hENPP2 [1] and on hENPP2 [2] were greater than 1000 nM and 0.01 to 25 nM, respectively.

Regarding `CCc1nc2ccc(N3CCN(S(C)(=O)=O)C(CCO)C3)nn2c1N(C)c1nc(-c2ccc(F)cc2)cs1` (stereo not shown) [Cpd 72, 2-(4-(2-ethyl-3-((4-(4-fluorophenyl)thiazol-2-yl)(methyl)amino)imidazo[1,2-b]pyridazin-6-yl)-1-(methylsulfonyl)piperazin-2-yl) ethanol], the IC50 at hENPP2 [1] is 500 to 1000 nM; against hENPP2 [2], 0.01 to 25 nM.

Take `CCc1nc2ccc(C3CCN(CC(=O)N4CC(O)C4)CC3)nn2c1N(C)c1nccc(-c2ccc(F)cc2)n1` [Cpd 215, 2-(4-(2-ethyl-3-((4-(4-fluorophenyl)pyrimidin-2-yl)(methyl)amino)imidazo[1,2-b]pyridazin-6-yl)piperidin-1-yl)-1-(3-hydroxyazetidin-1-yl)ethanone]: the IC50 is 100 to 500 nM against hENPP2 [1] and 0.01 to 25 nM on hENPP2 [2].

For `CCc1nc2ccc(N3CCCC(CNS(C)(=O)=O)C3)nn2c1N(C)c1nc(-c2ccc(F)cc2)cs1` (stereo not shown) [Cpd 102, N-((1-(2-ethyl-3-((4-(4-fluorophenyl)thiazol-2-yl)(methyl)amino)imidazo[1,2-b]pyridazin-6-yl)piperidin-3-yl)methyl) methanesulfonamide], the results for the IC50 against hENPP2 [1] and on hENPP2 [2] were greater than 1000 nM and 0.01 to 25 nM, respectively.

For `CCc1nc2ccc(N3CCN(CCC#N)CC3)nn2c1N(C)c1nc(-c2ccc(F)cc2)cs1` [Cpd 51], the figures for the IC50 against hENPP2 [1] and against hENPP2 [2] were greater than 1000 nM and 0.01 to 25 nM, respectively.

As to `CCc1nc2ccc(N3CCN[C@H](CO)C3)nn2c1N(C)c1nc(-c2ccc(F)cc2)cs1` [Cpd 60, (S)-(4-(2-ethyl-3-((4-(4-fluorophenyl)thiazol-2-yl)(methyl)amino)imidazo[1,2-b]pyridazin-6-yl)piperazin-2-yl)methanol], the results for the IC50 at hENPP2 [1] and against hENPP2 [2] were greater than 1000 nM and 0.01 to 25 nM, respectively.

Consider `CN(c1nc(-c2ccc(F)cc2)cs1)c1c(CC#N)nc2ccc(C3=CCN(S(C)(=O)=O)CC3)nn12` [Compound 196, 2-(3-((4-(4-fluorophenyl)thiazol-2-yl)(methyl)amino)-6-(1-(methylsulfonyl)-1,2,3,6-tetrahydropyridin-4-yl)imidazo[1,2-b]pyridazin-2-yl)acetonitrile], for which the IC50 on hENPP2 [1] is greater than 1000 nM; on hENPP2 [2], 0.01 to 25 nM.

Turning to `CCc1nc2cnc(N3CCN(CC(=O)N4CCCC4)CC3)cn2c1N(C)c1nc(-c2ccc(F)cc2)c(C#N)s1` [Cpd 8, 2-((2-ethyl-6-(4-(2-oxo-2-(pyrrolidin-1-yl)ethyl)piperazin-1-yl)imidazo[1,2-a]pyrazin-3-yl)(methyl)amino)-4-(4-fluorophenyl) thiazole-5-carbonitrile], the values for the IC50 against hENPP2 [1] and against hENPP2 [2] were 100 to 500 nM and 0.01 to 25 nM, respectively.

With `CCc1nc2ccc(N3CCN(CC(=O)N4CCOCC4)[C@H](CO)C3)nn2c1N(C)c1nc(-c2ccc(F)cc2)cs1` [Cpd 65, (S)-2-(4-(2-ethyl-3-((4-(4-fluorophenyl)thiazol-2-yl)(methyl)amino)imidazo[1,2-b]pyridazin-6-yl)-2-(hydroxymethyl)piperazin-1-yl)-1-morpholinoethanone], the IC50 on hENPP2 [1] lay within 100 to 500 nM; against hENPP2 [2], 0.01 to 25 nM.

With `CCc1nc2ccc(N3CCN(CC(=O)N(C)C)CC3)nn2c1N(C)c1nc(-c2ccc(F)cc2)c(CO)s1` [Cpd 43, 2-(4-(2-ethyl-3-((4-(4-fluorophenyl)-5-(hydroxymethyl)thiazol-2-yl)(methyl)amino)imidazo[1,2-b]pyridazin-6-yl)piperazin-1-yl)-N,N-dimethylacetamide], the IC50 is 100 to 500 nM against hENPP2 [1] and 0.01 to 25 nM at hENPP2 [2].

In the case of `CCc1nc2ccc(N3CCC(N4CCSCC4)C3)nn2c1N(C)c1nc(-c2ccc(F)cc2)cs1` (stereo not shown) [Cpd 131, N-(2-ethyl-6-(3-thiomorpholino-pyrrolidin-1-yl)imidazo[1,2-b]pyridazin-3-yl)-4-(4-fluorophenyl)-N-methylthiazol-2-amine], the IC50 against hENPP2 [1] is greater than 1000 nM; against hENPP2 [2], 0.01 to 25 nM.

Take `CCc1nc2ccc(N3CCCN(C(C)=O)CC3)nn2c1N(C)c1nc(-c2ccc(F)cc2)cs1` [Cpd 115, 1-(4-(2-ethyl-3-((4-(4-fluorophenyl)thiazol-2-yl)(methyl)amino)imidazo[1,2-b]pyridazin-6-yl)-1,4-diazepan-1-yl)ethanone]: the IC50 on hENPP2 [1] is greater than 1000 nM; at hENPP2 [2], 0.01 to 25 nM.

As to `CCc1nc2ccc(N3CCCC(CNC(=O)OC(C)(C)C)C3)nn2c1N(C)c1nc(-c2ccc(F)cc2)cs1` (stereo not shown) [Cpd 100, [1-(2-Ethyl-3-{[4-(4-fluoro-phenyl)-thiazol-2-yl]-methyl-amino}-imidazo[1,2-b]pyridazin-6-yl)-piperidin-3-ylmethyl]-carbamic acid tert-butyl ester], the IC50 against hENPP2 [1] is greater than 1000 nM; at hENPP2 [2], 0.01 to 25 nM.

Consider `CCc1nc2ccc(N3CCN(CC4CCCO4)CC3)nn2c1N(C)c1nc(-c2ccc(F)cc2)cs1` (stereo not shown) [Cpd 48, N-(2-ethyl-6-(4-((tetrahydrofuran-2-yl)methyl)piperazin-1-yl)imidazo[1,2-b]pyridazin-3-yl)-4-(4-fluorophenyl)-N-methylthiazol-2-amine], for which the IC50 on hENPP2 [1] was 100 to 500 nM; against hENPP2 [2], 0.01 to 25 nM.

For `CCc1nc2ccc(N3CCN(CCNC(C)=O)CC3)nn2c1N(C)c1nc(-c2ccc(F)cc2)cs1` [Cpd 57, N-(2-(4-(2-ethyl-3-((4-(4-fluorophenyl)thiazol-2-yl)(methyl)amino)imidazo[1,2-b]pyridazin-6-yl)piperazin-1-yl)ethyl)acetamide], the IC50 on hENPP2 [1] fell in the range of 100 to 500 nM; against hENPP2 [2], 0.01 to 25 nM.
